Among the data in patent publication US11286268B1, “EIF4E-inhibiting compounds and methods” (EFFECTOR THERAPEUTICS, INC., priority 2019, dated 2022) are IC50 values, retold here.

Each structure is given as a SMILES string. Like-named read-outs stand apart in the source and are kept apart here.

For the experiment, the target named is recombinant eIF4E (Homo sapiens (Human), UniProt P06730). As to the kind of experiment: Fluorescence polarization competition assay for eIF4E binding potency. The gist of the method:
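Competitive displacement format: compounds compete with a fluorescent m7GDP tracer (20 nM) for 75 nM recombinant eIF4E. Incubation is 30 min at room temperature, protected from light, with 1% DMSO. Polarization read gives IC50 over eight 3-fold concentrations.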
For orientation: In fluorescence polarisation assays a small probe gives low polarisation when free and higher when bound to something large.

Where [1] appears, read: inhibition of eIF4E/EDA-m7GDP-ATTO-550 binding, calculated IC50 values, Table 4B, read-out: IC50.
Where [2] appears, read: fluorescence polarization competition, 75 nM recombinant eIF4E, 20 nM EDA-m7GDP-ATTO-550, IC50 class, read-out: elF4E FP.
The mark [3] stands for this setting: inhibition of eIF4E/EDA-m7GDP-ATTO-550 binding by 50%, Table 4B calculated values, read-out: IC50.

recombinant eIF4E, sequence (P06730 whole entry): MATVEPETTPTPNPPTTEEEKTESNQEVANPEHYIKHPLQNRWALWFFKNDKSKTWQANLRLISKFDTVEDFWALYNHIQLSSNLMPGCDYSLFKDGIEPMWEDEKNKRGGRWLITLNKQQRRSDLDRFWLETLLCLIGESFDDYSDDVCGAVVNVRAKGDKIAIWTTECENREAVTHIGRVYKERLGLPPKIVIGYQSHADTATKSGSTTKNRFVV

As to `Cc1nc2cnc(N(C)[C@@H]3[C@@H]4C[C@H]3CN(CC(C)(F)F)C4)c(C#N)c2c(=O)n1CC#Cc1ccc(Cl)cc1-c1ccnc2c(C(=O)O)csc12` [compound 1576], the IC50 under setting [1] is 0.0179 µM. Turning to `Cc1cc(-c2cc(Cl)ccc2OCCn2c(C)nc3c(C)nc(-c4c(C)cccc4F)c(C#N)c3c2=O)c2scc(C(=O)O)c2n1` [compound 871], the IC50 under setting [2] is under 0.05 µM. Consider `COC(=O)c1csc2c(-c3cc(Cl)ccc3OCCn3c(C)nc4cnc(N(C)C5CCN(CC(F)(F)F)CC5)c(C#N)c4c3=O)ccnc12` [compound 1620], for which, under setting [1], the IC50 was 0.0179 µM. In the case of `Cc1nc2cnc(N(C)C3CCN([C@H]4C[C@@H](OC(F)(F)F)C4)CC3)c(C#N)c2c(=O)n1CC#Cc1ccc(Cl)cc1-c1ccnc2c(C(=O)NS(=O)(=O)c3ccncc3)csc12` [compound 1773], the IC50 under setting [1] is 0.0475 µM. Regarding `Cc1cc(-c2cc(Cl)ccc2OCCn2c(C)nc3cc(C(F)(F)F)c(-c4ccc(F)c(C)n4)c(C#N)c3c2=O)c2scc(C(=O)O)c2n1` [compound 1909], the IC50 under setting [1] is 0.0292 µM. Regarding `Cc1cc(-c2cc(Cl)ccc2OCCn2c(C)nc3cnc(N(C)CC(F)F)c(C#N)c3c2=O)c2scc(C(=O)O)c2n1` [compound 973], the IC50 is, setting by setting: under setting [2], 0.05 to 1 µM; under setting [3], 0.085 µM.

For `Cc1cc(-c2cc(Cl)ccc2OCCn2c(C)nc3c(C)nc(N4CCNCC4)c(C#N)c3c2=O)c2scc(C(=O)O)c2n1` [compound 878], the IC50 is under 0.05 µM under setting [2] and 0.00963 µM under setting [3]. In the case of `Cc1cc(-c2cc(Cl)ccc2OCCn2c(C)nc3cc(C(F)F)c(C4CC4)c(C#N)c3c2=O)c2scc(C(=O)O)c2n1` [compound 1048], the IC50 reads like this: under setting [2], under 0.05 µM; under setting [3], 0.0137 µM. As for `N#Cc1ncc(CCOc2ccc(Cl)cc2-c2cccc(C(=O)O)c2)c2c(=O)[nH]c(NCC(F)(F)F)nc12` [compound 177], the IC50 is, setting by setting: under setting [2], under 0.05 µM; under setting [3], 0.0268 µM. For the compound `CCN(c1ncc2nc(C)n(CC#Cc3ccc(Cl)cc3-c3ccnc4c(C(=O)NS(=O)(=O)C5COC5)csc34)c(=O)c2c1C#N)C1CCN(C2COC2)CC1` [compound 1750], the IC50 under setting [1] is 0.0161 µM. Same read-out and setting: under `Cc1nc2cnc(N(C)C3CCN(CC(F)(F)F)CC3)c(C#N)c2c(=O)n1CC#Cc1ccc(Cl)cc1-c1ccnc2c(C(=O)NS(=O)(=O)c3ccnn3C)csc12` [compound 1668] stands 0.00567 µM. With `Cc1c(C(F)(F)F)cc2nc(C)n(CC#Cc3ccc(Cl)cc3-c3cn(C)c(=O)c4c(C(=O)O)csc34)c(=O)c2c1C#N` [compound 754], the IC50 was under 0.05 µM under setting [2] and 0.0172 µM under setting [3].

With `Cc1nc2cnc(N(C)C3CCN(C(C)C(F)F)CC3)c(C#N)c2c(=O)n1CC#Cc1ccc(Cl)cc1-c1ccnc2c(C(=O)O)csc12` (centres unmarked) [compound 1518], the IC50 under setting [1] is 0.0107 µM. As to `Cc1nc2c(C#N)ccc(C#N)c2c(=O)n1CCOc1ccc(Cl)cc1-c1ccnc2c(C(=O)O)csc12` [compound 312], the IC50 reads like this: under setting [2], 0.05 to 1 µM; under setting [3], 0.0756 µM. In the case of `Cc1nc2cc(C(F)(F)F)cc(C#N)c2c(=O)n1CCOc1ccc(Cl)cc1-c1cccc(C(=O)O)c1C#N` [compound 168], the IC50 reads like this: under setting [2], under 0.05 µM; under setting [3], 0.0372 µM. On to `Cc1cc(-c2cc(Cl)ccc2OCCn2c(C)nc3cc(C(F)(F)F)c[n+]([O-])c3c2=O)c2scc(C(=O)O)c2n1` [compound 1007], for which the IC50 under setting [2] is under 0.05 µM and the IC50 under setting [3] is 0.0482 µM.

Turning to `Cc1cc(-c2cc(Cl)ccc2OCCn2c(C)nc3c(F)cc(C(F)F)c(C#N)c3c2=O)c2scc(S(=O)(=O)O)c2n1` [compound 488], under setting [2], the IC50 was under 0.05 µM. As to `Cc1sc2c(-c3cc(Cl)ccc3OCCn3c(C)nc4cc(C(F)(F)F)c(N5CCN(C)CC5)c(C#N)c4c3=O)ccc(F)c2c1C(=O)O` [compound 1286], under setting [1], the IC50 is 0.0342 µM. Consider `Cc1cc(-c2cc(Cl)ccc2OCCn2c(C)nc3c(C)nc(C)c(C#N)c3c2=O)c2scc(C(=O)O)c2n1` [compound 492], for which the IC50 is under 0.05 µM under setting [2] and 0.0297 µM under setting [3]. On to `CONC(=O)c1csc2c(-c3cc(Cl)ccc3OCCn3c(C)nc4c(F)cc(C(F)F)c(C#N)c4c3=O)ccnc12` [compound 303], for which the IC50 under setting [2] lay within 0.05 to 1 µM.
